Reference: ChEMBL document CHEMBL3769347, “Discovery of high affinity inhibitors of Leishmania donovani N-myristoyltransferase” (Medchemcomm, 2015)
pKi: −log10 of the molar value.

Columns and labels:
[1] = Cytotoxicity in BALB/c mouse BMDM cells after 72 hrs by Alamar Blue assay; type: cell-based; details: bone marrow-derived macrophages (BMDM cells), read-out: LD50
[2] = molecular target: T1, Glycylpeptide N-tetradecanoyltransferase (Plasmodium falciparum (isolate 3D7), UniProt Q8ILW6); assay: Binding affinity to Plasmodium falciparum N-myristoyltransferase by fluorescence analysis
T1 sequence (Q8ILW6 whole entry): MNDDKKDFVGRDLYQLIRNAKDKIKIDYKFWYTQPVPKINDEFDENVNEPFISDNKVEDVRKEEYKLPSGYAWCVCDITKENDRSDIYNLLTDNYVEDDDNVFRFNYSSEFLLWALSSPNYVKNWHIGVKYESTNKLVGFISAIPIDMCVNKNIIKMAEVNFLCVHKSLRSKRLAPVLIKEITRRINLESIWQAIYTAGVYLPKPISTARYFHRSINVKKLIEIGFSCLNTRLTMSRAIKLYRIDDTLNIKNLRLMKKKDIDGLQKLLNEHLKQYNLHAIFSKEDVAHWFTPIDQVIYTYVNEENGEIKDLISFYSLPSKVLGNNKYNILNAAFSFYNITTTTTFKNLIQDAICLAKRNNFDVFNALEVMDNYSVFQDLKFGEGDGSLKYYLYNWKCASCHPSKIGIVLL

Compound	CC50 at 72 h [1] [µM]	pKi [2]
COc1cccc(Cc2noc(-c3ccc(F)cc3OC3CCNCC3)n2)c1	29.5	
Cc1nn(C)c(C)c1Cc1nnc(-c2cc(Cl)ccc2OC2CCNCC2)o1	> 90	
COc1cccc(Cc2noc(-c3cc(Cl)ccc3OC3CCNCC3)n2)c1	18	
COc1cccc(COC(=O)c2sccc2OC2CCNCC2)c1		< 4.00
COc1cccc(Cc2noc(-c3cc(OC)ccc3OC3CCNCC3)n2)c1	27.9	
